Assay results: article PMC12030059, “Mechanistic Advances in the Therapeutic Application of Bixin for Lung Inflammation In Vitro and In Vivo” (Pharmaceuticals, 2025)
Values after ≈ are worked out from the molar mass of the structure shown.

Tests used:
[1] = PAMPA-GIT permeability assay; assay type: in vitro ADME
Description: The parallel artificial membrane permeability assay (PAMPA) utilizes a 96-well plate system in a “sandwich” format, where one plate is positioned above another (PAMPA). The upper plate, known as the donor compartment, contains the compounds (test or control) dissolved in a buffered solution. […] The lipid composition of the PVDF filter varies depending on the type of permeability test. For gastrointestinal tract (GIT) permeability assessments, L-α-soy phosphatidylcholine in dodecane is used. Optical density values are measured at specified wavelengths for each compound and compared against controls. For GIT permeability, the absorbed fraction (Fa%) and permeability (Pe) are determined. […] Compounds for these assays were diluted from a 10 mM stock solution. These assays were conducted using a 1 mg/mL stock solution per compound.

RAW 264.7 cells = assay: ROS scavenger activity assay (NBT), LPS-induced; assay type: cell-based; conditions: for ROS production induced by LPS: LPS 10 μg/mL, 12.5–200 μM, effect starting from 100 µM
Description: ROS levels were determined using the NBT method. RAW 264.7 cells were incubated for 1 h with 10 μg/mL LPS and different concentrations of bixin or potassium bixinate (0–200 μM) to evaluate their ability to intercept superoxide anions induced by LPS. After incubation, a 10% (w/v) NBT solution was added to each well and incubated for 1 h at 37 °C. Cellular membranes were permeabilized with 2 M KOH, and the resulting formazan was solubilized in DMSO. Optical density (OD) was measured at 630 nm using a Varioskan LUX spectrophotometer (ThermoFisher Scientific, Waltham, MA, USA).

Kinetic solubility assay = assay type: physicochemical; conditions: aqueous buffer, kinetic from dmso stock, 37 °C
Description: These solutions were incubated in a shaking water bath at 37 °C for 4 and 24 h. Immediately after each incubation period, the samples were centrifuged at 21,000× g Universal Centrifuge 320R Hettich (Tuttlingen, Germany) at 22 °C. The supernatant was collected, filtered through a 0.44 μm Millipore filter (Sigma-Aldrich—Saint Louis, MO, USA) into a vial, and analyzed using a HPLC LC-20AD Shimadzu (Kyoto, Japan) coupled with a DAD detector set at 457 nm. The mobile phase consisted of acetonitrile and methanol (85:15 v/v) using a 100-5C18 Kromasil (Bohus, Sweden) analytical column (4.6 mm × 250 mm, 5 μm) as the stationary phase in isocratic mode at 22 °C with a flow rate of 1 mL/min. A calibration curve was prepared using bixin in acetonitrile at concentrations ranging from 0 to 200 μM and analyzed under the same HPLC conditions. LogS was calculated as the base-10 logarithm of the solubility (in μM) for each time point.

Nrf2/ARE axis = assay: Luciferase ARE reporter assay; assay type: cell-based; conditions: RAW 264.7 transfected with ARE luciferase reporter, 0–200 μM; read-out: EC50 in activating the Nrf2/ARE axis
Description: RAW 264.7 cells (3.5 × 10^5 cells/well) were seeded into 24-well plates in FBS-free DMEM. Next day, cells were transfected with the ARE-responsive luciferase reporter kit (#60514, BPS Bioscience, San Diego, CA, USA) in Opti-MEM containing Lipofectamine 2000 and incubated for 24 h. After stimulation with different concentrations of potassium bixinate (0–200 μM), the luciferase-containing medium was collected and incubated with luciferin substrate (Dual Luciferase Assay System) (#60683-1, BPS Bioscience, San Diego, CA, USA) according to the manufacturer’s instructions. Luminescence emitted by luciferin cleavage was measured using the Varioskan LUX plate reader (ThermoFisher Scientific, Waltham, MA, USA).

[2] = test system: C57BL/6 mice challenged with intranasal LPS; assay: Intranasal LPS lung inflammation in mice, BAL cytokine ELISA; assay type: in vivo; conditions: 200 mg/kg gavage, 5 days
Description: Eight-week-old male C57BL/6 mice were obtained from the Multidisciplinary Center for Biological Research in Laboratory Animal Science (CEMIB/UNICAMP, Campinas, Brazil). The mice were provided with Purina chow ad libitum (Nuvilab, Curitiba, Brazil) and had unrestricted access to water in a controlled environment maintained at 22 ± 2 °C, 50–70% relative humidity, and a 12 h light/dark cycle (EB-273B, Insight Equipamentos Ltd., São Paulo, Brazil). They were acclimatized for two weeks before the experimental procedures. All experimental protocols were approved by the local Animal Ethics Committee (096/19).
To evaluate the pharmacological effects of potassium bixinate, the animals were divided into four groups (n = 5–7): (1) Control, (2) KBx, (3) LPS, and (4) LPS + KBx. For five consecutive days, animals in groups 2 and 4 were treated by oral gavage with 200 mg/kg of potassium bixinate diluted in PBS in a final volume of 100 μL, while animals in groups 1 and 3 were treated with 100 μL of PBS. On the sixth day, animals in groups 3 and 4 were challenged intranasally with 60 μg of LPS (extracted from Escherichia coli O55:B5) diluted in PBS (10 μL), while animals in groups 1 and 2 received 10 μL of PBS intranasally. Sixteen hours after LPS/PBS instillation, the animals were euthanized by cervical dislocation under isoflurane sedation.
Immediately following euthanasia, BAL was collected using an intratracheal cannula. The lavage was performed with 1.5 mL of saline solution (3 × 0.5 mL). The collected lavage fluid was centrifuged at 600× g for 10 min, and the supernatant was stored at −80 °C for subsequent enzyme-linked immunosorbent assay (ELISA) analysis.
Cytokine levels (IL-10 and KC; #900-K53K and #900-K127K) were quantified in BAL samples using an ELISA kit, following the manufacturer’s instructions (PeproTech, Neuilly Sur-Seine, France). A sample volume of 25 μL was used without dilution. The enzymatic reaction was initiated with peroxidase and a specific substrate, and the reaction was stopped before measuring absorbance at 450 nm and 570 nm using a Varioskan LUX spectrometer (ThermoFisher Scientific, Waltham, MA, USA). A calibration curve was generated using standard concentrations of the target protein, with the method showing linearity across a range of 2000–0 pg/mL.

Papp ([1]; L-α-soy phosphatidylcholine in dodecane, read-out: Experimental Pe) [×10⁻⁶ cm/s] | Experimental Fa ([1]; absorbed fraction) [%] | solubility at 4 h (Kinetic solubility assay; PBS buffer, pH 7.4, 4 h) [µM] | solubility at 24 h (Kinetic solubility assay; PBS buffer, pH 7.4, 24 h) [µM] | solubility at 4 h (Kinetic solubility assay; buffered solution pH 2.0 (commercial), pH 2.0, 4 h) [µM] | solubility at 24 h (Kinetic solubility assay; buffered solution pH 2.0 (commercial), pH 2.0, 24 h) [µM] | solubility at 4 h (Kinetic solubility assay; potassium-phosphate-buffered saline solution (KPE) buffer, pH 6.6, 4 h) [µM] | solubility at 24 h (Kinetic solubility assay; potassium-phosphate-buffered saline solution (KPE) buffer, pH 6.6, 24 h) [µM] | Compound | ROS production induced by LPS (RAW 264.7 cells) | EC50 (Nrf2/ARE axis) [µM] | potency to intercept ROS formation relative to bixin (RAW 264.7 cells; in vitro, KBx versus bixin) | IL-10 levels in BAL, KBx alone ([2]; no LPS) | KC levels in BAL, KBx alone vs control ([2]; no LPS) | IL-10 levels in BAL, LPS + KBx ([2]; then LPS 60 μg i.n., 16 h) | KC levels in BAL, LPS + KBx vs LPS ([2]; then LPS 60 μg i.n., 16 h)
0.36 | 12.79 | 64 (≈ 25.2 µg/mL) | 43 (≈ 17 µg/mL) | < 1 | < 1 | 30 (≈ 11.8 µg/mL) | 11 (≈ 4.34 µg/mL) | COC(=O)/C=C/C(C)=C\C=C\C(C)=C\C=C\C=C(C)\C=C\C=C(C)\C=C\C(=O)O [HBx, (2E,4E,6E,8E,10E,12E,14E,16Z,18E)-20-methoxy-4,8,13,17-tetramethyl-20-oxoicosa-2,4,6,8,10,12,14,16,18-nonaenoic acid] | dose-dependent reduction in ROS production |  |  |  |  |  | 
 |  |  |  |  |  |  |  | potassium bixinate [KBx] | dose-dependent reduction in ROS production | 46 | three-fold more potency | comparable to the control | no significant effect on KC levels | can increase IL-10 production in the presence of LPS | significantly lower compared to the LPS group
